# Measurements from US20260159536A1, “AKR1C3-ACTIVATED DNA ALKYLATING AGENT, AND MEDICAL APPLICATION THEREOF” (ASCENTAWITS PHARMACEUTICALS, LTD., priority 2021, published 2026).
# How the values were obtained:
# [1] = system: HuPrime model LI6664 human liver cancer; assay: In vivo pharmacodynamics, liver cancer LI6664 PDX model; set-up: species or system BALB/c nude mice; settings: for Size of tumor volume: Group8, Compound A 4.5 mg/kg
# H460 cells = assay: Inhibition of H460 cancer cell proliferation (CTG, 72 h); format: cell-based; settings: Homo sapiens, NCI-H460
# Method: If not otherwise specified, IC50 values were measured by the following experimental methods:
# c) The cell suspension was added to 96-well plate with 100 μL per well and 2000 cells/well of cell density.
# a) Cells were plated for 24 hours, and then the compounds acted singly. 99 μL of growth medium was supplemented per well, and then 1 μL of 200× compound was added, gently shaken to ensure uniform mixing, and then placed in a 37° C., 5% CO2 incubator.
# b) The cell plate was placed in the incubator for 72 hours.
# b) 100 μL of CTG reagent (CelltiterGlo kit) was added to each well, the plate was placed in a rapid oscillator and shaken for 2 minutes, and then placed at room temperature for 30 minutes away from light.
# c) The chemiluminescence signal value was read with Envision instrument.
# The IC50 was calculated using GraphPad Prism 8 software and the IC50 (half inhibitory concentration) of the compounds was obtained using the following non-linear fitting formula: […]
# CAL12T = assay: AKR1C3-dependent cytotoxicity, NSCLC cell line CAL12T; format: cell-based; settings: Homo sapiens, CAL-12T
# Method: (§1) The tested compound was then added. The compound was dissolved in 100% DMSO at 200 times of the desired final test concentration. When the medicament was added, the compound was further diluted to 4 times of the desired final test concentration by using the complete medium. 50 μL of aliquots of the compound with specific concentration were added to the microwells containing 150 μL of medium, and then the final medicament concentration was obtained. […] The medicament was then washed. […] After the incubation was finished, the Alamar Blue was used to analyze and quantify the living cells.
# [2] = Liver microsome stability, human; format: in vitro ADME; settings: for Percentage remaining after 30 minutes: Human liver microsomes
# Method: (§2) 1) Two individual experiments were performed.
# (§3) All experiments were performed in duplicate.
# [3] = system: HuPrime model LI6643 human liver cancer; assay: In vivo pharmacodynamics, liver cancer LI6643 PDX model (Compound A, Sorafenib, AST-3424; section 4.7); set-up: species or system BALB/c nude mice; settings: for Relative tumor volume (x ± S) / T/C (%) / TGI (%) / Tumor volume (x ± S): 2 weeks off, QDx5; for Tumor volume (x ± S): in mm³
# Method: Experiment Instruction: BALB/c nude mice were subcutaneously inoculated with HuPrime® model LI6643 tumor blocks to establish a subcutaneous grafted tumor model of human liver cancer. […] The efficacy was evaluated according to the relative tumor inhibition rate TGI (%), and the safety was evaluated according to the change in body weight and the death of the animals.
# NCI-H2110 = assay: AKR1C3-dependent cytotoxicity, NSCLC cell line NCI-H2110; format: cell-based
# Method: as §1
# NCI-H2228 = assay: AKR1C3-dependent cytotoxicity, NSCLC cell line NCI-H2228; format: cell-based; settings: Homo sapiens
# Method: as §1
# [4] = Liver microsome stability, monkey; format: in vitro ADME; settings: for Percentage remaining after 30 minutes: Monkey liver microsomes
# Method: as §2, §3
# [5] = 0.5 mg/kg i.v. QDx5, 2 days off, Day 21
# [6] = 2 mg/kg i.v. QDx5, 2 days off, Day 21
# [7] = Compound A 1 mg/kg i.v. QDx5, 2 days off, Day 21
structure (smiles),measurement,setting,value
O=[N+]([O-])c1ccc(C(OP(=O)(N2CC2)N2CC2)C(F)(F)F)cc1Oc1ccc(-c2ccc(F)cc2)c(F)c1 (racemic) [Compound A],Size of tumor volume,[1]; Day 32,339.73 mm^3
same,Size of tumor volume,[1]; Day 35,360.45 mm^3
same,Size of tumor volume,[1]; Day 39,391.38 mm^3
same,Size of tumor volume,[1]; Day 42,417.79 mm^3
same,Size of tumor volume,[1]; Day 46,451.01 mm^3
same,Size of tumor volume,[1]; Day 49,538.20 mm^3
same,weight loss,"[1]; treatment period, tested doses",no weight loss
same,IC50,H460 cells,6.87 nM
same,IC50,CAL12T,8080 nM
same,Percentage remaining after 30 minutes,[2]; with the addition of NADPH,115.25%
same,Percentage remaining after 30 minutes,[2]; without the addition of NADPH,111.93%
same,stability in liver microsomes,[2]; human,relatively stable
same,Relative tumor volume (x ± S),[3]; [5],1.84 ± 0.25
same,T/C (%),[3]; [5],38.12%
same,TGI (%),[3]; [5],61.88%
same,Tumor volume (x ± S),[3]; [5],242.85 ± 50.74
same,Tumor volume,"[3]; 0.5 mg/kg i.v., Day 0",124.86 mm^3
same,Tumor volume,"[3]; 0.5 mg/kg i.v., Day 3",239.56 mm^3
same,Tumor volume,"[3]; 0.5 mg/kg i.v., Day 7",282.74 mm^3
same,Tumor volume,"[3]; 0.5 mg/kg i.v., Day 10",266.35 mm^3
same,Tumor volume,"[3]; 0.5 mg/kg i.v., Day 14",231.35 mm^3
same,Tumor volume,"[3]; 0.5 mg/kg i.v., Day 17",241.82 mm^3
same,Tumor volume,"[3]; 0.5 mg/kg i.v., Day 21",242.85 mm^3
same,Tumor volume,"[3]; 0.5 mg/kg i.v., Day 24",173.56 mm^3
same,Tumor volume,"[3]; 0.5 mg/kg i.v., Day 28",188.68 mm^3
same,Relative tumor volume (x ± S),[3]; [6],0.97 ± 0.14
same,T/C (%),[3]; [6],20.19%
same,TGI (%),[3]; [6],79.81%
same,Tumor volume (x ± S),[3]; [6],116.38 ± 20.17
same,Tumor volume,"[3]; 2 mg/kg i.v., Day 0",124.40 mm^3
same,Tumor volume,"[3]; 2 mg/kg i.v., Day 3",182.25 mm^3
same,Tumor volume,"[3]; 2 mg/kg i.v., Day 7",182.74 mm^3
same,Tumor volume,"[3]; 2 mg/kg i.v., Day 10",162.65 mm^3
same,Tumor volume,"[3]; 2 mg/kg i.v., Day 14",137.87 mm^3
same,Tumor volume,"[3]; 2 mg/kg i.v., Day 17",117.10 mm^3
same,Tumor volume,"[3]; 2 mg/kg i.v., Day 21",116.38 mm^3
same,Tumor volume,"[3]; 2 mg/kg i.v., Day 24",122.78 mm^3
same,Tumor volume,"[3]; 2 mg/kg i.v., Day 28",95.87 mm^3
same,Relative tumor volume (x ± S),[3]; [7],1.44 ± 0.16
same,T/C (%),[3]; [7],29.91%
same,TGI (%),[3]; [7],70.09%
same,Tumor volume (x ± S),[3]; [7],174.86 ± 17.43
same,Tumor volume,"[3]; Compound A 1 mg/kg i.v., Day 0",124.32 mm^3
same,Tumor volume,"[3]; Compound A 1 mg/kg i.v., Day 3",205.79 mm^3
same,Tumor volume,"[3]; Compound A 1 mg/kg i.v., Day 7",246.90 mm^3
same,Tumor volume,"[3]; Compound A 1 mg/kg i.v., Day 10",225.40 mm^3
same,Tumor volume,"[3]; Compound A 1 mg/kg i.v., Day 14",195.33 mm^3
same,Tumor volume,"[3]; Compound A 1 mg/kg i.v., Day 17",191.98 mm^3
same,Tumor volume,"[3]; Compound A 1 mg/kg i.v., Day 21",174.86 mm^3
same,Tumor volume,"[3]; Compound A 1 mg/kg i.v., Day 24",217.19 mm^3
same,Tumor volume,"[3]; Compound A 1 mg/kg i.v., Day 28",231.64 mm^3
same,IC50,NCI-H2110,67.8 nM
same,IC50,NCI-H2228,12.8 nM
same,Percentage remaining after 30 minutes,[4]; with the addition of NADPH,82.29%
same,Percentage remaining after 30 minutes,[4]; without the addition of NADPH,81.30%
same,stability in liver microsomes,[4]; monkey,relatively stable
